Reference: US7432259B2, “Spiro-piperidine derivatives” (Hoffmann-La Roche Inc., priority 2006, dated 2008)

Biological target: T1, human V1a receptor (Homo sapiens, UniProt P37288)
T1 construct: expressed in transfected cells; host or cells: HEK293 cells, transiently transfected; cell membranes used
Assay: human V1a receptor binding study (3H-Vasopressin SPA, membranes of transfected HEK293 cells)
Settings: membranes of HEK293 cells transiently transfected with human V1a receptor, Ki by Cheng-Prussoff equation, read-out: pKi(hV1a) (converted)
Protocol: The human V1a receptor was cloned by RT-PCR from total human liver RNA. The coding sequence was subcloned in an expression vector after sequencing to confirm the identity of the amplified sequence. […] Cell membranes were prepared from HEK293 cells transiently transfected with the expression vector and grown in 20 liter fermenters with the following protocol.
50 g of cells were resuspended in 30 ml freshly prepared ice cold Lysis buffer (50 mM HEPES, 1 mM EDTA, 10 mM MgCl2 adjusted to pH=7.4+complete cocktail of protease inhibitor (Roche Diagnostics)). Homogenized with Polytron for 1 min and sonicated on ice for 2×2 minutes at 80%, intensity (Vibracell sonicator). The preparation was centrifuged 20 min at 500 g at 4° C., the pellet was discarded and the supernatant centrifuged 1 hour at 43,000 g at 4° C. (19,000 rpm). The pellet was resuspended in 12.5 ml Lysis buffer+12.5 ml Sucrose 20% and homogenized using a Polytron for 1-2 min. The protein concentration was determined by the Bradford method and aliquots were stored at −80° C. until use. For binding studies 60 mg Yttrium silicate SPA beads (Amersham) were mixed with an aliquot of membrane in binding buffer (50 mM Tris, 120 mM NaCl, 5 mM KCl, 2 mM CaCl2, 10 mM MgCl2) for 15 minutes with mixing. 50 ul of bead/membrane mixture was then added to each well of a 96 well plate, followed by 50 ul of 4 nM 3H-Vasopressin (American Radiolabeled Chemicals). For total binding measurement 100 ul of binding buffer were added to the respective wells, for non-specific binding 100 ul of 8.4 mM cold vasopressin and for compound testing 100 ul of a serial dilution of each compound in 2% DMSO. The plate was incubated 1 h at room temperature, centrifuged 1 min at 1000 g and counted on a Packard Top-Count. Non-specific binding counts were subtracted from each well and data was normalized to the maximum specific binding set at 100%. To calculate an IC 50 the curve was fitted using a non-linear regression model (XLfit) and the Ki was calculated using the Cheng-Prussoff equation.

T1 sequence (P37288 whole entry): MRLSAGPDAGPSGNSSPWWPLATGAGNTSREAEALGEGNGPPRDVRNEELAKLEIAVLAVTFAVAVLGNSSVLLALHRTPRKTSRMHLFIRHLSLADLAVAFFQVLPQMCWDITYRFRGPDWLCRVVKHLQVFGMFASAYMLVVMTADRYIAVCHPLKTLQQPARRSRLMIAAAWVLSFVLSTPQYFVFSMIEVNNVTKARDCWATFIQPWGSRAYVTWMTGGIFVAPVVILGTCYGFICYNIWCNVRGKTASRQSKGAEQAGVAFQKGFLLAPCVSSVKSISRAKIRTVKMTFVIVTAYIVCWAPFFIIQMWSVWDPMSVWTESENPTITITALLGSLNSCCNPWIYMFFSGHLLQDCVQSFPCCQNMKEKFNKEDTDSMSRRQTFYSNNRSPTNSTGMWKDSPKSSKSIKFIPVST

Compound	Ki
N#CCn1c(C(=O)N2CCC3(CC2)OC(=O)Nc2ccccc23)cc2ccccc21 [Example 15, {2-[(2-Oxo-1,2-dihydro-1′H-spiro[3,1-benzoxazine-4,4′-piperidin]-1′-yl)carbonyl]-1H-indol-1-yl}acetonitrile]	60.3 nM
N#CCn1c(C(=O)N2CCC3(CC2)CC(=O)Nc2ccc(Br)cc23)cc2cc(Cl)ccc21 [Example 7, {2-[(6′-Bromo-2′-oxo-2′,3′-dihydro-1H,1′H-spiro[piperidine-4,4′-quinolin]-1-yl)carbonyl]-5-chloro-1H-indol-1-yl}acetonitrile]	47.3 nM
Cn1c(C(=O)N2CCC3(CC2)OC(=O)Nc2ccccc23)cc2cc(Cl)ccc21 [Example 14, 1′-[(5-Chloro-1-methyl-1H-indol-2-yl)carbonyl]spiro[3,1-benzoxazine-4,4′-piperidin]-2(1H)-one]	29.9 nM
N#CCn1c(C(=O)N2CCC3(CC2)OC(=O)Nc2ccccc23)cc2cc(Cl)ccc21 [Example 16, {5-Chloro-2-[(2-oxo-1,2-dihydro-1′H-spiro[3,1-benzoxazine-4,4′-piperidin]-1′-yl)carbonyl]-1H-indol-1-yl}acetonitrile]	10.6 nM
